In PMC5218480 (PLoS ONE, 2017):

Test system: MV-4-11 cells
Assay: Gene expression microarray analysis (Affymetrix PrimeView) and GSEA
Type: cell-based, human
Set-up: RFU PODN (11730768_x_at) / Fold change /veh PODN (11730768_x_at) / RFU LINC00158 (11744669_a_at) / Fold change /veh LINC00158 (11744669_a_at) / RFU DUSP10 (11751237_a_at) / Fold change /veh DUSP10 (11751237_a_at) / RFU ID3 (11757404_x_at) / Fold change /veh ID3 (11757404_x_at) / RFU PLEKHG5 (11737974_s_at) / Fold change /veh PLEKHG5 (11737974_s_at) / RFU LRRC4B (11730491_at) / Fold change /veh LRRC4B (11730491_at) / RFU GIMAP4 (11747438_a_at) / Fold change /veh GIMAP4 (11747438_a_at) / RFU KRT8 (11758183_x_at) / Fold change /veh KRT8 (11758183_x_at) / RFU CNN1 (11734310_a_at) / Fold change /veh CNN1 (11734310_a_at) / RFU VPS37D (11726825_at) / Fold change /veh VPS37D (11726825_at) / RFU C10orf10 (11716522_x_at) / Fold change /veh C10orf10 (11716522_x_at) / RFU KIR2DL2 /// KIR2DL4 /// KIR2DL5A /// KIR2DL5B /// KIR2DS1 /// KIR2DS2 /// KIR2DS3 /// KIR2DS4 /// KIR3DL3 /// KIR3DL3 /// KIR3DS1 (11738374_at) / Fold change /veh KIR2DL2 /// KIR2DL4 /// KIR2DL5A /// KIR2DL5B /// KIR2DS1 /// KIR2DS2 /// KIR2DS3 /// KIR2DS4 /// KIR3DL3 /// KIR3DL3 /// KIR3DS1 (11738374_at) / RFU C1QL1 (11718748_at) / Fold change /veh C1QL1 (11718748_at) / RFU TMPRSS4 (11747572_a_at) / Fold change /veh TMPRSS4 (11747572_a_at) / RFU HAMP (11756126_x_at) / Fold change /veh HAMP (11756126_x_at) / RFU RNFT2 (11725882_a_at) / Fold change /veh RNFT2 (11725882_a_at) / RFU NR4A2 (11747474_a_at) / Fold change /veh NR4A2 (11747474_a_at) / RFU ABCC12 (11746883_a_at) / Fold change /veh ABCC12 (11746883_a_at) / RFU TMEM136 (11760407_x_at) / Fold change /veh TMEM136 (11760407_x_at) / RFU CLDN22 /// WWC2 (11732394_at) / Fold change /veh CLDN22 /// WWC2 (11732394_at) / RFU HLA-DPB1 (11760878_x_at) / Fold change /veh HLA-DPB1 (11760878_x_at) / RFU SPINT1 (11716480_a_at) / Fold change /veh SPINT1 (11716480_a_at) / RFU GAP43 (11754022_s_at) / Fold change /veh GAP43 (11754022_s_at) / RFU A4GNT (11735810_at) / Fold change /veh A4GNT (11735810_at) / RFU PRB3 (11715151_x_at) / Fold change /veh PRB3 (11715151_x_at) / RFU TUBB4B (11761932_at) / Fold change /veh TUBB4B (11761932_at) / RFU CAPN14 (11732068_a_at) / Fold change /veh CAPN14 (11732068_a_at) / RFU TMCC2 (11721928_a_at) / Fold change /veh TMCC2 (11721928_a_at) / RFU IRGQ (11745062_a_at) / Fold change /veh IRGQ (11745062_a_at) / RFU FAM174B (11720279_a_at) / Fold change /veh FAM174B (11720279_a_at) / RFU TMPRSS4 (11748680_a_at) / Fold change /veh TMPRSS4 (11748680_a_at) / RFU FAM212B (11763350_a_at) / Fold change /veh FAM212B (11763350_a_at) / RFU PLEKHG5 (11743358_a_at) / Fold change /veh PLEKHG5 (11743358_a_at) / RFU ZSCAN30 (11745921_a_at) / Fold change /veh ZSCAN30 (11745921_a_at) / RFU CMKLR1 (11741424_a_at) / Fold change /veh CMKLR1 (11741424_a_at) / RFU LOC101060620 /// MAPK8IP1 (11723275_at) / Fold change /veh LOC101060620 /// MAPK8IP1 (11723275_at) / RFU SPTSSB (11747773_x_at) / Fold change /veh SPTSSB (11747773_x_at) / RFU PRSS12 (11739890_at) / Fold change /veh PRSS12 (11739890_at) / RFU BIN1 (11741810_x_at) / Fold change /veh BIN1 (11741810_x_at) / RFU WNT11 (11732464_a_at) / Fold change /veh WNT11 (11732464_a_at) / RFU C10orf10 (11716521_a_at) / Fold change /veh C10orf10 (11716521_a_at) / RFU C5orf56 (11738089_at) / Fold change /veh C5orf56 (11738089_at) / RFU CYB561 (11721691_x_at) / Fold change /veh CYB561 (11721691_x_at) / RFU ANKRD19P (11752326_a_at) / Fold change /veh ANKRD19P (11752326_a_at) / RFU OR2T12 /// OR2T33 /// OR2T8 (11738714_s_at) / Fold change /veh OR2T12 /// OR2T33 /// OR2T8 (11738714_s_at) / RFU VCAN (11748164_a_at) / Fold change /veh VCAN (11748164_a_at) / RFU JSRP1 (11732532_at) / Fold change /veh JSRP1 (11732532_at) / RFU KRTAP10-11 (11738290_x_at) / Fold change /veh KRTAP10-11 (11738290_x_at) / RFU MYO3A (11730013_a_at) / Fold change /veh MYO3A (11730013_a_at) / RFU EBF3 (11725865_a_at) / Fold change /veh EBF3 (11725865_a_at) / RFU CAMK2N1 (11719241_x_at) / Fold change /veh CAMK2N1 (11719241_x_at) / RFU C5orf56 (11738088_a_at) / Fold change /veh C5orf56 (11738088_a_at) / RFU OLFML3 (11715873_a_at) / Fold change /veh OLFML3 (11715873_a_at) / RFU LOC100653217 /// NTM (11731650_a_at) / Fold change /veh LOC100653217 /// NTM (11731650_a_at) / RFU MAPK11 (11762145_a_at) / Fold change /veh MAPK11 (11762145_a_at) / RFU FIZ1 (11724087_x_at) / Fold change /veh FIZ1 (11724087_x_at) / RFU OASL (11726364_x_at) / Fold change /veh OASL (11726364_x_at) / RFU SOX15 (11748057_x_at) / Fold change /veh SOX15 (11748057_x_at) / RFU CD79A (11719716_a_at) / Fold change /veh CD79A (11719716_a_at) / RFU HIST1H1D (11736915_at) / Fold change /veh HIST1H1D (11736915_at) / RFU CASKIN2 (11723855_a_at) / Fold change /veh CASKIN2 (11723855_a_at) / RFU LOC730098 (11760151_x_at) / Fold change /veh LOC730098 (11760151_x_at) / RFU OR4N2 (11742367_at) / Fold change /veh OR4N2 (11742367_at) / RFU PRRT2 (11749266_a_at) / Fold change /veh PRRT2 (11749266_a_at) / RFU SNX32 (11753110_a_at) / Fold change /veh SNX32 (11753110_a_at) / RFU CDHR5 (11726645_a_at) / Fold change /veh CDHR5 (11726645_a_at) / RFU RCAN1 (11760418_a_at) / Fold change /veh RCAN1 (11760418_a_at) / RFU FAM167A (11723789_a_at) / Fold change /veh FAM167A (11723789_a_at) / RFU FAM26E (11764081_at) / Fold change /veh FAM26E (11764081_at) / RFU ISYNA1 (11749810_s_at) / Fold change /veh ISYNA1 (11749810_s_at) / RFU ACY1 (11761880_at) / Fold change /veh ACY1 (11761880_at) / RFU 11764098_at / Fold change /veh 11764098_at / RFU SAMD14 (11745864_x_at) / Fold change /veh SAMD14 (11745864_x_at) / RFU NPB (11741838_a_at) / Fold change /veh NPB (11741838_a_at) / RFU TMPRSS6 (11731388_a_at) / Fold change /veh TMPRSS6 (11731388_a_at) / RFU KRTAP10-2 (11738614_at) / Fold change /veh KRTAP10-2 (11738614_at) / RFU ARHGAP8 /// PRR5-ARHGAP8 (11727945_x_at) / Fold change /veh ARHGAP8 /// PRR5-ARHGAP8 (11727945_x_at) / RFU KRTAP5-7 /// NADSYN1 (11734609_at) / Fold change /veh KRTAP5-7 /// NADSYN1 (11734609_at) / RFU RASL12 (11751679_a_at) / Fold change /veh RASL12 (11751679_a_at) / RFU CDKN2B (11736163_a_at) / Fold change /veh CDKN2B (11736163_a_at) / RFU PRF1 (11729649_at) / Fold change /veh PRF1 (11729649_at) / RFU, ZNF638 /// ZNF638-IT1 / Fold change vs veh, ZNF638 /// ZNF638-IT1 / RFU, PANK3 / Fold change vs veh, PANK3 / RFU, SH3YL1 / Fold change vs veh, SH3YL1 / RFU, ZEB2 / Fold change vs veh, ZEB2 / RFU, NRIP1 / Fold change vs veh, NRIP1 / RFU, PTTG1IP / Fold change vs veh, PTTG1IP / RFU, CAPN2 / Fold change vs veh, CAPN2 / RFU, MED14 / Fold change vs veh, MED14 / RFU, SNORA58 / Fold change vs veh, SNORA58 / RFU, C1orf63 / Fold change vs veh, C1orf63 / RFU, LRRFIP1 / Fold change vs veh, LRRFIP1 / RFU, NDUFAF7 / Fold change vs veh, NDUFAF7 / RFU, SLC12A2 / Fold change vs veh, SLC12A2 / RFU, IBTK / Fold change vs veh, IBTK / RFU, ESF1 / Fold change vs veh, ESF1 / Fold change vs veh, TMEM50B / RFU, TAOK1 / Fold change vs veh, TAOK1 / RFU, ACBD3 / Fold change vs veh, ACBD3 / RFU, TMA16 / Fold change vs veh, TMA16 / RFU, RWDD3 / Fold change vs veh, RWDD3 / RFU, BCAT1 / Fold change vs veh, BCAT1 / RFU, EDEM3 / Fold change vs veh, EDEM3 / RFU, TMEM33 / Fold change vs veh, TMEM33 / RFU, WDR75 / Fold change vs veh, WDR75 / RFU, AHCTF1 / Fold change vs veh, AHCTF1 / RFU, TFRC / Fold change vs veh, TFRC / RFU, ZDHHC17 / Fold change vs veh, ZDHHC17 / RFU, NOM1 / Fold change vs veh, NOM1 / RFU, ARL8B / Fold change vs veh, ARL8B / RFU, ZBTB11 / Fold change vs veh, ZBTB11 / RFU, TAMM41 / Fold change vs veh, TAMM41 / RFU, KIAA1704 /// LOC100996395 / Fold change vs veh, KIAA1704 /// LOC100996395 / RFU, ING1 / Fold change vs veh, ING1 / RFU, TRMT61B / Fold change vs veh, TRMT61B / RFU, FUBP3 / Fold change vs veh, FUBP3 / RFU, TP53 / Fold change vs veh, TP53 / RFU, TNKS2 / Fold change vs veh, TNKS2 / RFU, ZFP14 / Fold change vs veh, ZFP14 / RFU, ACTR2 / Fold change vs veh, ACTR2 / RFU, PPP3R1 / Fold change vs veh, PPP3R1 / RFU, PIK3R1 / Fold change vs veh, PIK3R1 / RFU, HNRNPA1 / Fold change vs veh, HNRNPA1 / RFU, RNF170 / Fold change vs veh, RNF170 / RFU, ZNF28 / Fold change vs veh, ZNF28 / RFU, RNGTT / Fold change vs veh, RNGTT / RFU, OGT / Fold change vs veh, OGT / RFU, BRD1 / Fold change vs veh, BRD1 / RFU, MARS / Fold change vs veh, MARS / RFU, ZNF655 / Fold change vs veh, ZNF655 / RFU, FAHD1 / Fold change vs veh, FAHD1 / RFU, BDP1 / Fold change vs veh, BDP1 / RFU, LRRCC1 / Fold change vs veh, LRRCC1 / RFU, ARID1A / Fold change vs veh, ARID1A / RFU, ZNF146 / Fold change vs veh, ZNF146 / RFU, ZNF330 / Fold change vs veh, ZNF330 / RFU, GPN3 / Fold change vs veh, GPN3 / RFU, C9orf123 / Fold change vs veh, C9orf123 / RFU, N4BP2L2 / Fold change vs veh, N4BP2L2 / RFU, ARFIP1 / Fold change vs veh, ARFIP1 / RFU, FAM179B / Fold change vs veh, FAM179B / RFU, BCL10 / Fold change vs veh, BCL10 / RFU, UHRF1BP1L / Fold change vs veh, UHRF1BP1L / RFU, BET1 / Fold change vs veh, BET1 / RFU, CNOT2 / Fold change vs veh, CNOT2 / RFU, ZNF268 / Fold change vs veh, ZNF268 / Fold change vs veh, ZNF507 / RFU, DGCR2 / Fold change vs veh, DGCR2 / RFU, WDSUB1 / Fold change vs veh, WDSUB1 / Fold change vs veh, HSP90B1 /// MIR3652 / RFU, ADSS / Fold change vs veh, ADSS / RFU, GK / Fold change vs veh, GK / RFU, ZNF148 / Fold change vs veh, ZNF148 / RFU, TAF9 / Fold change vs veh, TAF9 / RFU, SLC1A5 / Fold change vs veh, SLC1A5 / RFU, SLMO2 / Fold change vs veh, SLMO2 / RFU, ABCC4 / Fold change vs veh, ABCC4 / RFU, LOC101060439 /// RAP1B / Fold change vs veh, LOC101060439 /// RAP1B / RFU, RFX7 / Fold change vs veh, RFX7 / RFU, GTPBP10 / Fold change vs veh, GTPBP10 / RFU, CNEP1R1 / Fold change vs veh, CNEP1R1 / RFU, BIVM-ERCC5 /// ERCC5 / Fold change vs veh, BIVM-ERCC5 /// ERCC5 / RFU, ILF3 / Fold change vs veh, ILF3 / RFU 11762660_at / Fold change /veh 11762660_at / RFU VCAN (11757783_s_at) / Fold change /veh VCAN (11757783_s_at) / RFU DDX43 (11728927_at) / Fold change /veh DDX43 (11728927_at) / RFU KRT8 (11758188_x_at) / Fold change /veh KRT8 (11758188_x_at) / RFU NKD1 (11759106_at) / Fold change /veh NKD1 (11759106_at) / RFU SRD5A1 (11742802_a_at) / Fold change /veh SRD5A1 (11742802_a_at) / RFU TPSAB1 /// TPSB2 (11721975_s_at) / Fold change /veh TPSAB1 /// TPSB2 (11721975_s_at) / RFU GSTM3 (11746129_a_at) / Fold change /veh GSTM3 (11746129_a_at) / RFU IL23R (11737362_x_at) / Fold change /veh IL23R (11737362_x_at) / RFU TMEM51 (11727254_a_at) / Fold change /veh TMEM51 (11727254_a_at) / RFU PIWIL2 (11732686_x_at) / Fold change /veh PIWIL2 (11732686_x_at) / RFU ORM1 (11744905_x_at) / Fold change /veh ORM1 (11744905_x_at) / RFU CCDC152 (11743942_at) / Fold change /veh CCDC152 (11743942_at) / RFU ECM1 (11717891_a_at) / Fold change /veh ECM1 (11717891_a_at) / RFU IL23R (11748794_a_at) / Fold change /veh IL23R (11748794_a_at) / RFU TNFAIP8L3 (11732012_x_at) / Fold change /veh TNFAIP8L3 (11732012_x_at) / RFU MBOAT4 (11741988_at) / Fold change /veh MBOAT4 (11741988_at) / RFU 11764193_at / Fold change /veh 11764193_at / RFU TMEM53 (11763286_at) / Fold change /veh TMEM53 (11763286_at) / RFU MAGEB2 (11727129_at) / Fold change /veh MAGEB2 (11727129_at) / RFU TMEM200A (11744735_a_at) / Fold change /veh TMEM200A (11744735_a_at) / RFU CCDC152 (11751479_a_at) / Fold change /veh CCDC152 (11751479_a_at) / RFU FAM211A (11726209_a_at) / Fold change /veh FAM211A (11726209_a_at) / RFU RGS16 (11746705_a_at) / Fold change /veh RGS16 (11746705_a_at) / RFU VCAN (11755009_s_at) / Fold change /veh VCAN (11755009_s_at) / RFU RHOB (11743442_s_at) / Fold change /veh RHOB (11743442_s_at) / RFU RGS16 (11720943_a_at) / Fold change /veh RGS16 (11720943_a_at) / RFU RGS16 (11720944_at) / Fold change /veh RGS16 (11720944_at) / RFU, VPS4B / Fold change vs veh, VPS4B / RFU, CREB1 / Fold change vs veh, CREB1 / RFU, DNAJC13 / Fold change vs veh, DNAJC13 / RFU, GNAQ / Fold change vs veh, GNAQ / RFU, CDK5R1 / Fold change vs veh, CDK5R1 / RFU, ZRANB3 / Fold change vs veh, ZRANB3 / RFU, CUL4A / Fold change vs veh, CUL4A / RFU, CCNY / Fold change vs veh, CCNY / RFU, UFL1 / Fold change vs veh, UFL1 / RFU, COG3 / Fold change vs veh, COG3 / RFU, DIAPH2 / Fold change vs veh, DIAPH2 / RFU, SKA2 / Fold change vs veh, SKA2 / RFU, AFF3 / Fold change vs veh, AFF3 / RFU, LMF1 / Fold change vs veh, LMF1 / RFU, IPO11 / Fold change vs veh, IPO11 / RFU, DFFB / Fold change vs veh, DFFB / RFU, FOXP1 / Fold change vs veh, FOXP1 / RFU, CARD8 / Fold change vs veh, CARD8 / RFU, STRN3 / Fold change vs veh, STRN3 / RFU, ADK / Fold change vs veh, ADK / RFU, RASSF2 / Fold change vs veh, RASSF2 / RFU, WIPF1 / Fold change vs veh, WIPF1 / RFU, LARP1B / Fold change vs veh, LARP1B / RFU, RASA1 / Fold change vs veh, RASA1 / RFU, RB1 / Fold change vs veh, RB1 / RFU, PPFIA1 / Fold change vs veh, PPFIA1 / RFU, MAT2A / Fold change vs veh, MAT2A / RFU, CCT5 / Fold change vs veh, CCT5 / RFU, WDR92 / Fold change vs veh, WDR92 / RFU, CUX1 / Fold change vs veh, CUX1 / RFU, TTC7A / Fold change vs veh, TTC7A / RFU, TMEM135 / Fold change vs veh, TMEM135 / RFU, DEPTOR / Fold change vs veh, DEPTOR / RFU, CPM / Fold change vs veh, CPM / RFU, DNAJB6 / Fold change vs veh, DNAJB6 / RFU, CACNA2D3 / Fold change vs veh, CACNA2D3 / RFU, DTX4 / Fold change vs veh, DTX4 / RFU, TFCP2 / Fold change vs veh, TFCP2 / RFU, GMCL1 /// GMCL1P1 / Fold change vs veh, GMCL1 /// GMCL1P1 / RFU, AEBP2 / Fold change vs veh, AEBP2 / RFU, SNHG1 /// SNORD22 /// SNORD25 /// SNORD26 /// SNORD27 /// SNORD28 /// SNORD29 /// SNORD31 / Fold change vs veh, SNHG1 /// SNORD22 /// SNORD25 /// SNORD26 /// SNORD27 /// SNORD28 /// SNORD29 /// SNORD31 / Fold change (Aza/veh), C12orf56 (ProbeSet 11735607_a_at) / Fold change (ACY-1035/veh), C12orf56 (ProbeSet 11735607_a_at) / Fold change (Aza/veh), FGFR1OP (ProbeSet 11751329_s_at) / Fold change (ACY-1035/veh), FGFR1OP (ProbeSet 11751329_s_at) / Fold change (Aza/veh), VPS36 (ProbeSet 11739960_a_at) / Fold change (ACY-1035/veh), VPS36 (ProbeSet 11739960_a_at) / RFU SYPL1 (11715823_x_at) / Fold change /veh SYPL1 (11715823_x_at) / RFU IGFBP7 (11715501_s_at) / Fold change /veh IGFBP7 (11715501_s_at) / RFU REEP3 (11722064_at) / Fold change /veh REEP3 (11722064_at) / RFU IGLL1 (11728026_x_at) / Fold change /veh IGLL1 (11728026_x_at): dose or concentration left out as unconfirmed
Settings: MV-4-11 cells, 48 hours

SMILES: Nc1ncn([C@@H]2O[C@H](CO)[C@@H](O)[C@H]2O)c(=O)n1 [azacitidine]
- Fold change /veh KRTAP10-2 (11738614_at): 0.93
